Data on ten compounds can be found in US8614063B2, “Methods for screening for compounds for treating cancer” (PTC Therapeutics, Inc., priority 2008, dated 2013).

The term EC50 denotes the concentration giving half of the maximal effect. Lower therefore signals an effect from little substance. Usually CC50 stands for the concentration that lowers cell viability or growth by half. Low readings indicate harm at low concentration, high ones better tolerance by the cells.

Each structure is given as a SMILES string.

For one data set, the system named is Bmi-1. Nature of the data set: Bmi-1 Sandwich ELISA (endogenous Bmi-1 protein in HT-1080 cells). In kind it is cell-based, human. The following applies: 40-48 hours compound treatment. As to the method: In another embodiment, the levels of endogenous Bmi-1 are determined by the Bmi-1 Sandwich ELISA. A Sandwich ELISA measures the amount of antigen, in this case Bmi-1, between two layers of antibodies (i.e. capture and detection antibody). The capture antibody is immobilized in the wells of an ELISA plate and when a cell lysate or other sample is added to the plate, the specific protein of interest (Bmi-1) is bound by this capture antibody. A second antibody, called the detecting antibody, is then added, which binds to the bound protein and helps increase the signal. […] Either monoclonal or polyclonal antibodies can be used as the capture and detection antibodies in Sandwich ELISA systems. Monoclonal antibodies recognize a single epitope that allows fine detection and quantification of […] differences in antigen. A polyclonal is often used as the capture antibody to pull down as much of the antigen as possible.
HT-1080 cells were seeded at 5000 cells/well (50 μL) in 96-well tissue culture plates. After the cells become adherent (3-4 hours), 2× diluted stocks of compounds in 50 μL DMEM containing 1% DMSO (final DMSO concentration was 0.5%) were added and the plates were incubated at 37° C. under 5% CO2 for 40-48 hours
The plate was covered with a plate seal and allowed to stand overnight.
1× Lysis Buffer (40 μL) was added to each well and the plate was shaken for 5-10 minutes on an orbital shaker to allow cell lysis, then Diluent (1% BSA in PBS in 0.5% NP40) (100 μL) was added to each well.
Aliquots can be kept at 4° C. and reused after first thaw, but only for 1-2 weeks. The Bmi-1 Recombinant Protein Standard contains a GST and thus will show up on western blots around 70 Kda.
The prepared ELISA plate was washed 3× with Wash Buffer (0.05% Tween-20 in PBS). The final wash was removed from the plate and the plate was blotted dry on paper towels. Blocking Buffer (300 μL) (1% BSA in PBS) was added per well. The plate was covered with a plate seal and incubated at room temperature for 1 hour. The blocked plate was washed 3× with Wash Buffer, the final wash was removed and the plate was blotted dry on paper towels. The previously prepared samples and standards were added (at 100 μL/well) and the plate was covered with a plate seal and incubated at 4° C. overnight.
The prepared ELISA plate was removed from 4° C., incubated at room temperature for 30 minutes, then washed and blotted dry as previously described for Day 3. […] The plate was covered with a plate seal and incubated for 1.5 hrs at room temperature.
The ELISA plate was washed and blotted dry as previously described.
The plate was incubated for 20-30 minutes at room temperature in the dark, then Stop Solution (2 M sulfuric acid in water) ([…]) was added per well. The plates were read at OD450 (experimental) and OD570 (reference).
On the technique in general: ELISA stands for enzyme-linked immunosorbent assay.

The subject of data set [1] is firefly luciferase (fLuc) reporter gene flanked by the 5′-UTR and 3′-UTR of Bmi-1 mRNA. The data set is described as follows: Luciferase reporter gene assay in stable 293H cells. In kind it is cell-based. The conditions noted are these: Homo sapiens, fLuc flanked by Bmi-1 5′-UTR and 3′-UTR. The text has this:
A high-level expression vector, pcDNA™3.1/Hygro (Invitrogen Corp., Carlsbad, Calif.) was used for preparing the constructs comprising the luciferase gene flanked by any of the Bmi-1 5′-UTR and 3′-UTR, or the Bmi-1 5′-UTR or the Bmi-1 3′-UTR of Bmi-1 mRNA. In a pcDNA™3.1/Hygro vector, the UTRs and restriction sites associated with cloning, expressing, or cloning and expressing a gene of interest or a reporter gene were removed or replaced. For each construct containing 5′-UTR sequences, the 5′-UTR sequences with the first 21 nucleotides of Bmi-1 ORF were cloned into the vector using the appropriate restriction sites so that the first 21 nucleotides were in frame with the luciferase reporter gene.
The cells were passaged every 4 days at 1:10 dilution. Cultures were kept in a 37° C. and 5% CO2 incubator. The cells were scaled-up over a three day period before performing the assay. Two confluent T175 flasks were split into twenty T175 flasks (1:10 dilution). Cells were harvested from each confluent flask by removing all of the media and adding 4 mL of warmed trypsin to dislodge the cells. After the cells were dislodged, 16 mL of selective media was added for a final volume of 20 mL. The cells were expanded by adding 2 mL of the harvested cells into ten new T175 flasks plus 25 mL of selective media. The twenty new flasks are placed into the 37° C., 5% CO2 incubator. On the day the assay was performed, the media was removed from the flasks and 3 mL of warmed trypsin was added to dislodge the cells. After the cells were dislodged, 10 mL of nonselective media was to the flask. This was repeated for all twenty flasks and combined into one flask. 100 μL of the above cell culture plus 100 μL of Trypan Blue stain was counted on a hemocytometer.
Luciferase activity was immediately assayed using a ViewLux Imaging system (Perkin Elmer).
On the technique in general: Reporter assays use an easily measured gene product as a stand-in for the process of interest.

A short description of data set [2]: CellTiter-Glo cytotoxicity assay, U937. It is filed as cell-based. The following applies: human, U937 cells (monocyte cell line); U937, relatively sensitive cell line. The text has this: To evaluate cytotoxicity of the compounds in the 293H cell lines, the CellTiter-Glo® assay (Promega) is utilized. CellTiter-Glo® determines the number of viable cells in culture based on quantification of the ATP present, which signals the presence of metabolically active cells. A reduction in cellular ATP is indicative of a cytotoxic or cytostatic effect. Doxorubicin, a known cytotoxic compound, is used to address the sensitivity of the tested cell line. For relatively sensitive cell lines, such as U937 (a human monocyte cell line), the CC50 of doxorubicin ranges from 4 to 10 nM.

Data set [3] in a line: CellTiter-Glo cytotoxicity assay, Huh7. It is filed as cell-based. The conditions noted are these: human, Huh7 cells (hepatocellular carcinoma cell line); Huh7, intermediate level of sensitivity. For orientation: In ATP-based viability assays light output follows the ATP content of the culture.

Turning to `COc1cc(Cl)c(Nc2nc(-c3c(C)nc4ncccn34)cs2)c(Cl)c1` [Compound 2, N-(2,6-dichloro-4-methoxyphenyl)-4-(2-methylimidazo[1,2-a]pyrimidin-3-yl)thiazol-2-amine], the concentration giving a half-maximal response (EC50) amounted to 660 nM in the data set with Bmi-1 and 910 nM in data set [1].
With `COc1cc(F)c(Nc2nc(-c3c(C)nc4ncccn34)cs2)c(F)c1` [Compound 3, N-(2,6-difluoro-4-methoxyphenyl)-4-(2-methylimidazo[1,2-a]pyrimidin-3-yl)thiazol-2-amine], the half-maximal effective concentration (EC50) was above 3000 nM with Bmi-1 and 17600 nM in data set [1].
For the compound `COc1cc(Br)c(Nc2nc(-c3c(C)nc4ncccn34)cs2)c(Br)c1` [Compound 1, N-(2,6-dibromo-4-methoxyphenyl)-4-(2-methylimidazo[1,2-a]pyrimidin-3-yl)thiazol-2-amine], the 50% effective concentration (EC50) in the data set on Bmi-1 came out at 410 nM; in data set [1], 530 nM.
Turning to `COc1cccc2c1C(=O)c1c(O)c3c(c(O)c1C2=O)C[C@@](O)(C(=O)CO)C[C@@H]3O[C@H]1C[C@H](N)[C@H](O)[C@H](C)O1` [doxorubicin, Doxorubicin], the 50% cytotoxic concentration (CC50) in data set [2] fell in the range of 4 to 10 nM; in data set [3] it was 70 to 300 nM.
As for `Cc1nc2ncccn2c1-c1csc(Nc2c(Br)cc(Br)cc2Br)n1` [Compound 5, 4-(2-methylimidazo[1,2-a]pyrimidin-3-yl)-N-(2,4,6-tribromophenyl)thiazol-2-amine], the half-maximal effective concentration (EC50) was 710 nM with Bmi-1 and 800 nM in data set [1].
Taken in the same sequence, the figures for `COc1cc(Cl)c(Nc2nc(-c3cnc4ccc(Cl)cn34)cs2)c(Cl)c1` [Compound 9, 4-(6-chloroimidazo[1,2-a]pyridine-3-yl)-N-(2,6-dichloro-4-methoxyphenyl)thiazol-2-amine] were 1090 nM and 940 nM.
`COCCOc1cc(Br)c(Nc2nc(-c3c(C)nc4ncccn34)cs2)c(Br)c1` [Compound 6, N-(2,6-dibromo-4-(2-methoxyethoxy)phenyl)-4-(2-methylimidazo[1,2-a]pyrimidin-3-yl)thiazol-2-amine]: the results for the concentration giving a half-maximal response (EC50) (in the data set on Bmi-1; in data set [1]) were 1700 nM and 2600 nM, respectively.
For `Cc1cc(Br)c(Nc2nc(-c3c(C)nc4ncccn34)cs2)c(Br)c1` [Compound 4, N-(2,6-dibromo-4-methylphenyl)-4-(2-methylimidazo[1,2-a]pyrimidin-3-yl)thiazol-2-amine], the results for the EC50 (in the data set on Bmi-1; in data set [1]) were 320 nM and 540 nM, respectively.
As to `Cc1cc(Br)c(Nc2nc(-c3cnc4ccc(Cl)cn34)cs2)c(Br)c1` [Compound 8, 4-(6-chloroimidazo[1,2-a]pyridine-3-yl)-N-(2,6-dibromo-4-methylphenyl)thiazol-2-amine], the EC50 in the data set with Bmi-1 was 390 nM; in data set [1], 3800 nM.
For `COc1cc(Br)c(Nc2nc(-c3cnc4ccc(Cl)cn34)cs2)c(Br)c1` [Compound 7, 4-(6-chloroimidazo[1,2-a]pyridine-3-yl)-N-(2,6-dibromo-4-methoxyphenyl)thiazol-2-amine], the EC50 in the data set on Bmi-1 is 360 nM; in data set [1], 750 nM.
